The values that follow come from ChEMBL document CHEMBL1629541, “Synthesis and structure-activity relationships of aza- and diazabiphenyl analogues of the antitubercular drug (6S)-2-nitro-6-{[4-(trifluoromethoxy)benzyl]oxy}-6,7-dihydro-5H-imidazo[2,1-b][1,3]oxazine (PA-824)” (J Med Chem, 2010).

By Cmax is commonly meant the maximum level reached in the sampled fluid or tissue. By AUC(0-inf) is commonly meant total exposure, with the tail of the curve extrapolated. A higher AUC(0-inf) goes with high exposure. By solubility (thermodynamic) is commonly meant solubility found after equilibrating the solid with the medium. By half-life is commonly meant the time in which the quantity being followed falls by half. Low readings indicate fast loss, high ones slow loss. As a reminder, the AUC(0-t) is exposure summed from dosing to a finite time, without extrapolation to infinity. Low values mean less exposure, high ones more exposure. A word on the bioavailability: it is the share of a dose that reaches the circulation, judged against a reference dose that is usually intravenous. Low values mean poor availability, high ones good availability. A word on the Kp: it is tissue or fluid exposure divided by exposure in the circulation. Broadly, the Tmax is the time from dosing to the highest level. As usually defined, the solubility is the concentration that dissolves in the medium under given conditions. A higher solubility goes with a readily soluble substance.

For data set [1], the system named is Mycobacterium tuberculosis. Briefly: microbe, parasite or virus in culture. As to conditions: H37Rv.
Data set [2] in a line: Cmax in Sprague-Dawley rat at 1 mg/kg, iv administered as single dose. The format is ADME, organism-based. Set-up: dose 1 mg/kg, route intravenous. The following applies: in vivo.
A short description of data set [3]: AUC (0-infinity) in CD1 mouse plasma at 40 mg/kg, po administered as single dose. It counts as ADME, organism-based. On the set-up: time infinity, dose 40 mg/kg, route oral.
A short description of data set [4]: Cmax in CD1 mouse lung at 40 mg/kg, po administered as single dose. It counts as ADME, organism-based. Set-up: dose 40 mg/kg, route oral.
Data set [5] can be described thus: Thermodynamic solubility in aqueous buffer at pH 1 at 20 degC by HPLC. It counts as physicochemical.
Data set [6] is described as follows: Half life in CD1 mouse lung at 40 mg/kg, po administered as single dose. The format is ADME, organism-based. On the set-up: dose 40 mg/kg, route oral.
Data set [7] is described as follows: AUClast in Sprague-Dawley rat at 20 mg/kg, po administered as single dose. The format is ADME, organism-based. On the set-up: time 0 - last, dose 20 mg/kg, route oral. As to conditions: plasma.
Data set [8] is described as follows: Thermodynamic solubility in aqueous buffer at pH 7.4 at 20 degC by HPLC. It counts as physicochemical.
In data set [9] the test system is Mycobacterium tuberculosis. Put plainly: microbe, parasite or virus in culture. The following applies: H37Rv. The source holds these as a separate data set.
Description: Antitubercular activity against Mycobacterium tuberculosis H37Rv by LORA method
Data set [10] is described as follows: in vitro. The following applies: human, liver microsomes. A general note: Liver microsomes are a subcellular fraction often used to study metabolism.
Description: Metabolic stability in human liver microsomes assessed as compound remaining after 1 hr
Data set [11] in a line: Cmax in Sprague-Dawley rat at 20 mg/kg, po administered as single dose. It counts as ADME, organism-based. As to conditions: in vivo. On the set-up: dose 20 mg/kg, route oral.
A short description of data set [12]: Cmax in CD1 mouse plasma at 40 mg/kg, po administered as single dose. The format is ADME, organism-based. On the set-up: dose 40 mg/kg, route oral.
Data set [13] in a line: Half life in CD1 mouse plasma at 40 mg/kg, po administered as single dose. The format is ADME, organism-based. On the set-up: dose 40 mg/kg, route oral.
Data set [14] can be described thus: AUC (0-infinity) in CD1 mouse lung at 40 mg/kg, po administered as single dose. The format is ADME, organism-based. Set-up: time infinity, dose 40 mg/kg, route oral.
Data set [15] is described as follows: Oral bioavailability in Sprague-Dawley rat at 20 mg/kg, po administered as single dose. It counts as ADME, organism-based. The following applies: in vivo.
Data set [16] can be described thus: Ratio of AUC (0-infinity) in lung to AUC (0-infinity) in plasma of CD1 mouse at 40 mg/kg, po administered as single dose. It counts as ADME, organism-based. Set-up: dose 40 mg/kg, route oral.
Data set [17] can be described thus: AUClast in Sprague-Dawley rat at 1 mg/kg, iv administered as single dose. The format is ADME, organism-based. Set-up: time 0 - last, dose 1 mg/kg, route intravenous. The following applies: plasma.
Data set [18] in a line: Tmax in Sprague-Dawley rat at 1 mg/kg, iv administered as single dose. It counts as ADME, organism-based. Set-up: dose 1 mg/kg, route intravenous. The following applies: in vivo.
A short description of data set [19]: Half life in Sprague-Dawley rat at 1 mg/kg, iv administered as single dose. It counts as ADME, organism-based. Set-up: dose 1 mg/kg, route intravenous. As to conditions: in vivo.
A short description of data set [20]: physchem. As to conditions: water, pH 7.
Description: Solubility of the compound in water at pH 7.0 by HPLC
Data set [21] can be described thus: Tmax in Sprague-Dawley rat at 20 mg/kg, po administered as single dose. It counts as ADME, organism-based. Set-up: dose 20 mg/kg, route oral. The following applies: in vivo.
Data set [22] can be described thus: physchem. The following applies: water, pH 1.
Description: Solubility of the compound in water at pH 1.0 by HPLC
Data set [23] is described as follows: in vitro. As to conditions: CD1, mouse, liver microsomes.
Description: Metabolic stability in CD1 mouse liver microsomes assessed as compound remaining after 1 hr
The nature of data set [24]: Half life in Sprague-Dawley rat at 5 mg/kg, iv administered as single dose. The format is ADME, organism-based. On the set-up: dose 5 mg/kg, route intravenous. The following applies: in vivo.
Data set [25] in a line: AUClast in Sprague-Dawley rat at 5 mg/kg, iv administered as single dose. It counts as ADME, organism-based. Set-up: time 0 - last, dose 5 mg/kg, route intravenous. The following applies: plasma.
Data set [26] in a line: Cmax in Sprague-Dawley rat at 5 mg/kg, iv administered as single dose. As to conditions: in vivo. On the set-up: dose 5 mg/kg, route intravenous. It counts as ADME, organism-based.
The nature of data set [27]: Tmax in Sprague-Dawley rat at 5 mg/kg, iv administered as single dose. The format is ADME, organism-based. Set-up: dose 5 mg/kg, route intravenous. The following applies: in vivo.
A short description of data set [28]: Metabolic stability in human liver microsomes after 1 hr at 37 degC. The format is ADME, Microsome. The following applies: read-out: Stability.

Molecules are shown by their SMILES. Converted amounts (≈) assume the structure as drawn.

`O=[N+]([O-])c1cn2c(n1)OC[C@@H](OCc1ccc(-c3ccc(OC(F)(F)F)c(F)c3)nc1)C2`: the MIC in data set [1] amounted to 0.025 µM (≈ 0.0114 µg/mL); in data set [9] it was 0.93 µM (≈ 0.423 µg/mL). In addition, the Cmax is 530 ng/mL in data set [2], 12000 ng/mL in data set [4], 7200 ng/mL in data set [11] and 7000 ng/mL in [12]. In addition, the area under the curve AUC(0-inf) in data set [3] worked out at 175 µg·h/mL; in data set [14], 251 µg·h/mL. In addition, the thermodynamic solubility is 34 µg/mL (≈ 74.8 µM) in data set [5] (aqueous buffer) and 0.32 µg/mL (≈ 0.704 µM) in [8]. The figures for the half-life in data set [6], in [13] and in data set [19] were 720 min, 840 min and 1980 min, respectively. Besides, the exposure AUC(0-t) turned out to be 129000 ng·h/mL in data set [7] and 6970 ng·h/mL in [17]. Moreover, the remaining at 1 h in the data set “in vitro [10]” amounted to 100%; in “in vitro [23]” it was 90%. Further, the bioavailability in [15] worked out at 93%. The Kp in [16] came to 1.4. In addition, the time of peak concentration (Tmax) is 4.98 min in data set [18] and 6 h in data set [21]. In addition, the solubility came to 3 µg/mL (≈ 6.6 µM) in the data set “physchem [20]” and 71 µg/mL (≈ 156 µM) in the data set “physchem [22]”.
Regarding `O=[N+]([O-])c1cn2c(n1)OC[C@@H](OCc1ccc(-c3ccc(OC(F)(F)F)cc3)nc1)C2` [TBA-354], the MIC in data set [1] turned out to be 0.05 µM (≈ 0.0218 µg/mL); in [9], 0.54 µM (≈ 0.236 µg/mL). The AUC(0-inf) in data set [3] turned out to be 296 µg·h/mL; in [14], 81 µg·h/mL. Further, the Cmax in data set [4] was 18000 ng/mL; in data set [11], 8100 ng/mL; in data set [12], 12000 ng/mL; in [26], 3900 ng/mL. This compound displayed a solubility in data set [5] (buffer) of 45 µg/mL (≈ 103 µM). The half-life is 132 min in [6], greater than 360 min in data set [24] and 1440 min in data set [13]. For the same compound, the AUC(0-t) amounted to 30100 ng·h/mL in [7] and 12100 ng·h/mL in [25]. This compound also had a thermodynamic solubility in [8] of less than 0.1 µg/mL. Besides, the figures for the remaining at 1 h in the data set “in vitro [10]” and in “in vitro [23]” were 83% and 87%, respectively. This compound also showed a bioavailability in data set [15] of 62%. In addition, the Tmax in data set [21] was determined as 5 h; in [27] it was 4.98 min.
With `COc1ccc(-c2ccc(CO[C@@H]3COc4nc([N+](=O)[O-])cn4C3)cc2)cn1`, the MIC came out at 0.045 µM (≈ 0.0172 µg/mL) in data set [1] and 0.61 µM (≈ 0.233 µg/mL) in [9]. Moreover, the remaining at 1 h is 40% in “in vitro [10]”, greater than 50% in data set [28] and 6% in the data set “in vitro [23]”. Moreover, the solubility in the data set “physchem [20]” amounted to 4.4 µg/mL (≈ 11.5 µM).
